Results on 4 compounds are retold here after patent publication US9670217B2, “Process for preparing chlorins and their pharmaceutical uses” (UNIVERSIDADE DE COIMBRA, priority 2008, dated 2017).

Each structure is given as a SMILES string.

Data set [1] in a line: Absorption spectra (λmax, molar absorption coefficient). It counts as physicochemical. The following applies: for λmax / εmax: ethanol solutions.
Data set [2] can be described thus: Triplet lifetime by laser flash photolysis. It counts as physicochemical. Conditions: air-saturated ethanol. The method, then: (§1) Absorption spectra were recorded on a Shimadzu UV-2100 spectrophotometer or with a Carry 50 Biospectrophotometer (Varian, Mulgrave, USA). Fluorescence spectra were measured with a Spex Fluorolog 3 spectrophotometer, with correction for the wavelength dependence system (RCA C31034 photomultiplier), or with a PerkinElmer LS 50 spectrofluorimeter. Transient absorption spectra were measured with an Applied Photophysics LKS 60 nanosecond laser flash photolysis kinetic spectrometer, using the third harmonic of a Spectra-Physics Quanta Ray GCR 130-01 Nd/YAG laser for excitation, a Hamamatsu 1P28 photomultiplier and a Hewlett-Packard Infinium oscilloscope (1 GS/s). Flash photolysis measurements were made in the presence of air and in argon saturated solutions. Photoacoustic calorimetry employed the same Nd/YAG laser, a home-made front-face photoacoustic cell with a 2.25 MHz Panametrics transducer (model 5676) and a Tektronix DSA 601 transient recorder. Room-temperature singlet-oxygen phosphorescence was measured at 1270 nm with a Hamamatsu R5509-42 photomultiplier, cooled to 193 K in a liquid nitrogen chamber (Products for Research model PC176TSCE005), following laser excitation of aerated solutions at 355 nm, using an adapted Applied Photophysics spectrometer. Singlet oxygen emission at 1270 nm was also monitored with a liquid nitrogen-cooled germanium detector (North Coast) coupled to a Tectronix Digitizing scope (TDS 520B), following sample excitation with 5 ns laser pulses of the third harmonic (355 nm) generated by a Q-switched Nd:YAG laser (Continuum Surelite II).
The triplet-triplet absorption spectra and the triplet lifetimes of the photosensitisers (τT) were measured with the transient absorption spectra equipment described above, with excitation at 355 nm, where the solutions had absorbances between 0.25 and 0.30.
The triplet-triplet absorption spectra of the Luzitins measured in this work were in good agreement with that in the literature data for chlorins and bacteriochlorins. All triplet decays were clearly mono-exponential. […] Such values are consistent with diffusion limited energy transfer from the triplet state of the sensitizer to molecular oxygen through a charge-transfer interaction.

Data set [3] can be described thus: Singlet oxygen quantum yield and lifetime (1270 nm phosphorescence). It counts as physicochemical. Conditions: air-saturated ethanol; for ΦΔ (singlet oxygen quantum yield): phenalenone as reference. As to the method:
as §1
Singlet oxygen quantum yields in ethanol were obtained using a procedure described by some of us, using phenalenone as reference. The literature value for the singlet oxygen quantum yield obtained with phenalenone in ethanol is ΦΔ=0.95 [38].
All the singlet oxygen emissions measured in aerated ethanol solutions are very well described by mono-exponential decays, with typical singlet oxygen lifetimes (τΔ). The ΦΔ values of Table 1 were obtained by the procedures described above and are representative of these photosensitisers.
An air-saturated solution of Luzitin-Cl2Hep in ethanol with an absorbance ca. 0.2 at 355 nm was excited in a 1 cm quartz cuvette by a pulsed Nd:YAG laser, and the singlet oxygen emission was followed at 1270 nm, using the equipment and methods previously described. The intensity of the singlet oxygen phosphorescence was studied as a function of the laser intensity. A similar study was made with phenalenone in ethanol, at a concentration matching the absorbance of Luzitin-Cl2Hep at 355 nm. […] Various laser energies were employed and from the slopes of the energy dependence of singlet oxygen emission and the value of ΦΔ=0.95 for phenalenone in this ethanol, we obtained ΦΔ=0.78 for Luzitin-Cl2Hep.

A short description of data set [4]: Photobleaching under 748 nm diode laser irradiation. Conditions: for t1/2 (photobleaching half-life): 100 mW laser irradiation at 748 nm. It counts as physicochemical. The source says: The irradiation of bacteriochlorins in the photobleaching experiments employed the 748 nm Lynx diode laser. For animal studies we employed a costumer-made Hamamatsu diode laser, type LA0873. S/N M070301, which delivered 140 mW at 748 nm. This diode laser was controlled by a ThorLabs 500 mA ACC/APC Laser Diode Controller and in-house electronics. The laser energies of this and the other higher-energy lasers employed in this work were regularly checked with an Ophir model AN/2E laser power meter.
Photobleaching experiments were conducted in PBS. PBS:methanol (50:50) and methanol solutions. The solutions were irradiated in a cuvette with an optical path of 1 cm and the Lynx diode laser. The initial absorption of the solutions was ca. 0.8. The mechanism of photobleaching was assessed with the irradiation of the sensitizer using the Hamamatsu diode laser at 80 mW. The sensitizer was irradiated in PBS and in the presence of ascorbic acid or azide.
The chemical stability of the compounds was studied exposing them to light, air, and pH changes. The most significant degradation occurs for aerated solutions irradiated by light of the appropriate wavelength. In such circumstances the photobleaching of the compounds follows a first-order rate and is proportional to the energy of the incident laser light. In general, it was also observed that the photobleaching rate increases with the amount of water present in the solution. Bennett reported the photoconversion of Foscan® (m-THPC) and of the analogous bacteriochlorin (m-THPB) in PBS:methanol (50:50). Scherz reported the photoconversion of Tookad® in acetone and Triton-X:PBS [3]. For the purpose of comparing the photostability of Luzitins with that of Foscan® and Tookad®, we present in Table 2 the half-lives (t1/2) of representative drugs described herein, together with those of Foscan and Tookad® normalized for a laser power of 100 mW.
Luzitin-FMet was dissolved in PBS:methanol (2:3), transferred to a 1 cm quartz cell and its absorption spectrum was registered, FIG. 6. The quartz cell was then placed in the beam of the 748 nm Lynx diode laser, previously unfocused to have a beam diameter coincident with the window of the quartz cell. The laser power measured under these conditions was 28.8 mW. Every 5 minutes the irradiation was interrupted and a new absorption spectrum was registered. This procedure was followed for 65 minutes. The photobleaching follows the kinetics of a first-order reaction in the time window of the experiment. […] Whereas the bacteriochlorin peak at 743 nm is reduced from an absorbance of 1.128 to 0.337, the absorption of the chlorin only increases from 0.114 to 0.151. Taking into consideration the molar absorption coefficients of the compounds at these wavelengths, it is clear that whereas 70% of the bacteriochlorin is destroyed during the irradiation, only a few percent of chlorin are formed.
The half-lives of other bacteriochlorins normalized 100 mW laser irradiation at 748 nm are presented in […], together with the literature data for the photodegradation of Foscan® and Tookad® normalized for the same light intensity. It was also observed that the half-live to Luzitin-Cl is increased by a factor of 30 when the PBS solution of the photosensitizer is saturated with Argon, which reduces the oxygen concentration in the solution.

The test system of data set [5] is PC-3 (human prostate carcinoma). The data set can be described thus: Cell photosensitization, 748 nm diode laser, resazurin. It counts as cell-based. Conditions: for concentration of sensitizer required to kill 90% of cells (LD90): 6 J/cm^2 diode laser irradiation at 28.5 mW.
The test system of data set [6] is CT26 (murine colon carcinoma). The data set is described as above. It counts as cell-based, mouse. Conditions: for concentration of sensitizer required to kill 90% of cells (LD90): 6 J/cm^2 diode laser irradiation at 28.5 mW.
[7] abbreviates: corrected for the chlorin content.

As to `O=S(=O)(O)c1ccc(Cl)c(-c2c3nc(c(-c4c(Cl)ccc(S(=O)(=O)O)c4Cl)c4ccc([nH]4)c(-c4c(Cl)ccc(S(=O)(=O)O)c4Cl)c4nc(c(-c5c(Cl)ccc(S(=O)(=O)O)c5Cl)c5ccc2[nH]5)CC4)CC3)c1Cl` [Luzitin-Cl2, 5,10,15,20-tetrakis(2,6-dichloro-3-sulfonylphenyl)bacteriochlorin], in data set [1], the λmax is recorded as 745.0 nm. Moreover, the εmax in data set [1] (setting [7]) was 27,000^d) M^−1 cm^−1. For the same compound, the “τT (air) triplet lifetime” value in data set [2] worked out at 226 nsec. For the same compound, the “τΔ (singlet oxygen lifetime)” value in data set [3] was 15.4 μsec. Besides, the “ΦΔ (singlet oxygen quantum yield)” value in data set [3] was determined as 0.85. Also, the “t1/2 (photobleaching half-life)” value in data set [4] (PBS) was found to be 358 s. Also, the cell kill in data set [5] (20 μM, laser light dose 6 J/cm^2, incubation 24 hours) came out at 100%; in data set [6] (10 μM, laser light dose 6 J/cm^2, incubation 18 hours) it was 100%. For the same compound, in data set [5], the “concentration of sensitizer required to kill 90% of cells (LD90)” value (shortened to “concentration … to kill 90% of cells (LD90)”) amounted to 20 µM.

Turning to `CCNS(=O)(=O)c1ccc(Cl)c(-c2c3nc(c(-c4c(Cl)ccc(S(=O)(=O)NCC)c4Cl)c4ccc([nH]4)c(-c4c(Cl)ccc(S(=O)(=O)NCC)c4Cl)c4nc(c(-c5c(Cl)ccc(S(=O)(=O)NCC)c5Cl)c5ccc2[nH]5)CC4)CC3)c1Cl` [Luzitin-Cl2Et, 5,10,15,20-tetrakis(2,6-dichloro-3-N-ethylsulfamoylphenyl)bacteriochlorin], in data set [1], the “enhancement of ε at 750 nm band, more polar atropisomer fraction (βα3+α4)” value came out at 50%; the εmax was 96,000 M^−1 cm^−1; the λmax is 745.5 nm. Further, the “εmax of the more polar atropisomer fraction (βα3+α4)” value in data set [1] (at 748 nm (750 nm band), estimated) is 150,000 M^−1 cm^−1. Further, in data set [2], the “τT (air) triplet lifetime” value was found to be 265 nsec. In data set [3], the “τΔ (singlet oxygen lifetime)” value is reported as 13.7 μsec and the “ΦΔ (singlet oxygen quantum yield)” value is reported as 0.66. For the same compound, the “t1/2 (photobleaching half-life)” value in data set [4] (PBS:methanol) is 4,013 sec. Further, in data set [5], the “concentration … to kill 90% of cells (LD90)” value amounted to 5 µM. In addition, the “concentration … to kill 90% of cells (LD90)” value in data set [6] came out at 5 µM.

The compound `O=S(=O)(O)c1ccc(Cl)c(-c2c3nc(c(-c4cc(S(=O)(=O)O)ccc4Cl)c4ccc([nH]4)c(-c4cc(S(=O)(=O)O)ccc4Cl)c4nc(c(-c5cc(S(=O)(=O)O)ccc5Cl)c5ccc2[nH]5)CC4)CC3)c1` [Luzitin-Cl, 5,10,15,20-tetrakis(2-chloro-5-sulfonylphenyl)bacteriochlorin] showed a λmax in data set [1] of 746.5 nm. In data set [1] (setting [7]), the εmax is 23,000^d) M^−1 cm^−1. In addition, the “τT (air) triplet lifetime” value in data set [2] was found to be 240 nsec. In data set [3], the “τΔ (singlet oxygen lifetime)” value is 13.6 μsec and the “ΦΔ (singlet oxygen quantum yield)” value was determined as 0.43. Moreover, the “t1/2 (photobleaching half-life)” value in data set [4] (PBS) was 174 s.

In data set [1], `CNS(=O)(=O)c1ccc(F)c(-c2c3nc(c(-c4cc(S(=O)(=O)NC)ccc4F)c4ccc([nH]4)c(-c4cc(S(=O)(=O)NC)ccc4F)c4nc(c(-c5cc(S(=O)(=O)NC)ccc5F)c5ccc2[nH]5)CC4)CC3)c1` [Luzitin-FMet, 5,10,15,20-tetrakis(2-fluoro-5-N-methylsulfamoylphenyl)bacteriochlorin] came in with a λmax of 742.5 nm. Further, the εmax in data set [1] (setting [7]) is on record as 62,000^d) M^−1 cm^−1. For the same compound, the “τΔ (singlet oxygen lifetime)” value in data set [3] is given as 14.1 μsec. The “ΦΔ (singlet oxygen quantum yield)” value in data set [3] was found to be 0.71. Moreover, the “bacteriochlorin destroyed during irradiation” value in data set [4] (PBS:methanol (2:3), 748 nm, 28.8 mW, 65 minutes) came to 70%. Further, the “t1/2 (photobleaching half-life)” value in data set [4] (PBS:methanol) is 647 s; in data set [4] (methanol), 3,553 sec. Moreover, the “concentration … to kill 90% of cells (LD90)” value in data set [5] was determined as 0.5 µM; in data set [6], 1.0 µM.
